Results from ChEMBL document CHEMBL1777797, “Macrocyclic lactams as potent Hsp90 inhibitors with excellent tumor exposure and extended biomarker activity” (Bioorg Med Chem Lett, 2011).
In brackets after ≈: the same amount, converted by molar mass.

What was measured:
[1] = Solubility of the compound; format: physicochemical
Heat shock protein HSP90 = Heat shock protein HSP90 (Homo sapiens, UniProt P07900+P08238); assay: Inhibition of HSP90 in human HCT-116 cells expressing V-Src-firefly luciferase fusion protein after 3 to 6 hrs; format: cell-based
HCT-116 = assay: Antiproliferative activity against human HCT116 cells; format: functional, cell-based
[2] = Half life in rat liver microsomes; format: ADME, Microsome
[3] = Inhibition of HSP90 by fluorescence polarization assay
A-375 = assay: Antiproliferative activity against human A375 cells
BT-474 = assay: Antiproliferative activity against human BT474 cells
[4] = Antiproliferative activity against human WM266.4 cells; details: wm 266-4
A549 = assay: Antiproliferative activity against human A549 cells
MDA-MB-361 = assay: Antiproliferative activity against human MDA-MB-361 cells
DU-145 = assay: Antiproliferative activity against human DU145 cells
T98G = assay: Antiproliferative activity against human T98G cells
[5] = Antiproliferative activity against human U87MG cells; details: u-87mg atcc
KB = assay: Antiproliferative activity against human KB cells
[6] = Antiproliferative activity against human KB 8.5 cells
[7] = Antiproliferative activity against P-gp overexpressing human KBV1 cells; details: kb-v1
[8] = Plasma concentration human MDA-MB-361 xenograft in vivo model at 50 mg/kg, po measured at 6 hrs post dose; format: ADME, organism-based; design: dose 50 mg/kg, route oral
[9] = Drug level in tumor of human MDA-MB-361 xenograft in vivo model at 50 mg/kg, po measured at 6 hrs post dose; format: ADME, organism-based, Neoplasm; design: dose 50 mg/kg, route oral; details: read-out: Drug uptake
[10] = Plasma concentration in human MDA-MB-361 xenograft in vivo model at 50 mg/kg, po measured at 24 hrs post dose; format: ADME, organism-based; design: dose 50 mg/kg, route oral
[11] = Drug level in tumor of human MDA-MB-361 xenograft in vivo model at 50 mg/kg, po measured at 24 hrs post dose; format: ADME, organism-based, Neoplasm; design: dose 50 mg/kg, route oral; details: read-out: Drug uptake
NCI-H1975 = assay: Antiproliferative activity against human NCI-H1975 cells

| Structure (SMILES) | solubility [1] | IC50 (Heat shock protein HSP90) | EC50 (HCT-116) | half-life [2] | IC50 [3] | also measured |
| --- | --- | --- | --- | --- | --- | --- |
| Cc1c2c(n3c1CCCNC[C@H](C)Nc1cc-3ccc1C(N)=O)CC(C)(C)CC2=O | > 100 µg/mL |  |  |  |  |  |
| Cc1c2c(n3c1CCCN(C)C(=O)[C@H](C)Nc1cc-3ccc1C(N)=O)CC(C)(C)CC2=O | 34 µg/mL (≈ 77.9 µM) | 60 nM | 80 nM | > 30 min |  |  |
| CC(=O)N1CCc2c(C)c3c(n2-c2ccc(C(N)=O)c(c2)N[C@@H](C)CC1)CC(C)(C)CC3=O |  | 108 nM |  |  | 111 nM |  |
| Cc1c2c(n3c1CCCN[C@H](C)CNc1cc-3ccc1C(N)=O)CC(C)(C)CC2=O | > 100 µg/mL | 47 nM | 43 nM | > 30 min | 91 nM |  |
| Cc1c2c(n3c1CCN(C(=O)CN)CC[C@H](C)Nc1cc-3ccc1C(N)=O)CC(C)(C)CC2=O |  | 917 nM | 1010 nM |  | 90 nM |  |
| Cc1c2c(n3c1CCN(C(=O)CCN)CC[C@H](C)Nc1cc-3ccc1C(N)=O)CC(C)(C)CC2=O | > 100 µg/mL | 6183 nM | 4890 nM | > 30 min | 200 nM |  |
| Cc1c2c(n3c1CCN(C(=O)[C@@H](C)N)CC[C@H](C)Nc1cc-3ccc1C(N)=O)CC(C)(C)CC2=O | > 100 µg/mL |  |  |  | 119 nM |  |
| Cc1c2c(n3c1CCN(C(=O)[C@H](C)N)CC[C@H](C)Nc1cc-3ccc1C(N)=O)CC(C)(C)CC2=O | > 100 µg/mL |  |  |  |  |  |
| CC(=O)NCC(=O)N1CCc2c(C)c3c(n2-c2ccc(C(N)=O)c(c2)N[C@@H](C)CC1)CC(C)(C)CC3=O | 5 µg/mL (≈ 9.85 µM) | 674 nM | 1550 nM | > 30 min | 140 nM |  |
| Cc1c2c(n3c1CCN(C(=O)CN(C)C)CC[C@H](C)Nc1cc-3ccc1C(N)=O)CC(C)(C)CC2=O | > 100 µg/mL | 109 nM | 168 nM | 3 min | 140 nM |  |
| CC(=O)N1CCCc2c(C)c3c(n2-c2ccc(C(N)=O)c(c2)N[C@@H](C)C1)CC(C)(C)CC3=O | 69 µg/mL (≈ 153 µM) | 111 nM | 194 nM | 11 min | 219 nM |  |
| CC(=O)N1CCCc2c(C)c3c(n2-c2ccc(C(N)=O)c(c2)NC[C@H]1C)CC(C)(C)CC3=O | > 100 µg/mL | 1159 nM | 1900 nM | 12 min | 953 nM |  |
| Cc1c2c(n3c1CCCN(C(=O)CN(C)C)[C@H](C)CNc1cc-3ccc1C(N)=O)CC(C)(C)CC2=O | > 100 µg/mL | > 5000 nM | 3260 nM | > 30 min | > 5000 nM |  |
| Cc1c2c(n3c1CCCN(C(=O)[C@@H](C)N)[C@H](C)CNc1cc-3ccc1C(N)=O)CC(C)(C)CC2=O | > 100 µg/mL | > 5000 nM | > 5000 nM | > 30 min | 555 nM |  |
| Cc1c2c(n3c1CC(=O)NCCCNc1cc-3ccc1C(N)=O)CC(C)(C)CC2=O |  |  |  |  | 6830 nM |  |
| Cc1c2c(n3c1CC(=O)NCC[C@H](C)Nc1cc-3ccc1C(N)=O)CC(C)(C)CC2=O | > 100 µg/mL | 522 nM | 815 nM | > 30 min | 214 nM |  |
| Cc1c2c(n3c1CC(=O)N(C)CC[C@H](C)Nc1cc-3ccc1C(N)=O)CC(C)(C)CC2=O | > 100 µg/mL | 160 nM | 247 nM | > 30 min | 156 nM |  |
| Cc1c2c(n3c1CC(=O)N(C(C)C)CC[C@H](C)Nc1cc-3ccc1C(N)=O)CC(C)(C)CC2=O | > 100 µg/mL | 278 nM | 865 nM | 12 min | 608 nM |  |
| COCCN1CC[C@H](C)Nc2cc(ccc2C(N)=O)-n2c(c(C)c3c2CC(C)(C)CC3=O)CC1=O | > 100 µg/mL | 108 nM | 359 nM | > 30 min | 222 nM |  |
| Cc1c2c(n3c1CC(=O)N(CCN(C)C)CC[C@H](C)Nc1cc-3ccc1C(N)=O)CC(C)(C)CC2=O | > 100 µg/mL | 249 nM | 330 nM | > 30 min | 191 nM |  |
| CC(=O)NCCN1CC[C@H](C)Nc2cc(ccc2C(N)=O)-n2c(c(C)c3c2CC(C)(C)CC3=O)CC1=O | > 100 µg/mL | > 5000 nM | > 5000 nM | > 30 min | 407 nM |  |
| Cc1c2c(n3c1CCCNC(=O)[C@H](C)Nc1cc-3ccc1C(N)=O)CC(C)(C)CC2=O | > 100 µg/mL | 79 nM |  | > 30 min | 82 nM | IC50 (A-375): 23 nM; IC50 (BT-474): 23 nM; IC50 [4]: 92 nM; IC50 (A549): 23 nM; IC50 (MDA-MB-361): 111 nM; IC50 (DU-145): 45 nM; IC50 (T98G): 42 nM; IC50 [5]: 80 nM; IC50 (KB): 22 nM; IC50 [6]: 49 nM; IC50 [7]: > 1000 nM; concentration at 6 h [8]: 146 ng/mL; concentration at 6 h [9]: 2130 ng/g; concentration at 24 h [10]: 8 ng/mL; concentration at 24 h [11]: 1270 ng/g; IC50 (NCI-H1975): 47 nM |
| Cc1c2c(n3c1CCCNC(=O)[C@@H](C)Nc1cc-3ccc1C(N)=O)CC(C)(C)CC2=O |  | 123 nM | 175 nM |  | 268 nM |  |
| Cc1c2c(n3c1CCCN(CCN)C(=O)[C@H](C)Nc1cc-3ccc1C(N)=O)CC(C)(C)CC2=O | > 100 µg/mL | > 20000 nM | > 20000 nM |  | 1180 nM |  |
| CC(=O)NCCN1CCCc2c(C)c3c(n2-c2ccc(C(N)=O)c(c2)N[C@@H](C)C1=O)CC(C)(C)CC3=O | > 100 µg/mL | 15771 nM | 17900 nM | > 30 min | 240 nM |  |
| Cc1c2c(n3c1CCCNC(=O)C[C@H](C)Nc1cc-3ccc1C(N)=O)CC(C)(C)CC2=O |  | 1842 nM | 3330 nM |  | 337 nM |  |
